The values below come from patent US20160008366A1, “BTK INHIBITORS FOR THE TREATMENT OF CNS MALIGNANCIES” (Pharmacyclics LLC, priority 2014, published 2016).

Each structure is given as a SMILES string. Marks after values point to notes of the source that are not given here.

Data set [1] can be described thus: Quantification of PCI-32765 (ibrutinib) and its metabolite PCI-45227 in human cerebrospinal fluid samples of patient 01-001BF (LC-MS/MS). Type of data set: in vivo. Conditions: for observed in CSF samples: patient 01-001BF after 560 mg of ibrutinib daily; for Calculated Concentration in CSF: patient 01-001BF, ibrutinib 560 mg daily. The protocol:
Samples were obtained from patient (01-001BF), a person with Waldenstrom's macroglobulinemia with amyloid and Bing-Neel syndrome.
Standards and QC sample preparation and data analysis were carried out using the methods described in Example 1. In brief, all samples and standards were prepared on ice. Internal standard (IS) was prepared by addition of d5-PCI-32765 and d5-PCI-45227 in 0.2% formic acid in 1:9 (v/v) water: ACN (acetonitrile).
A100 μL of either a sample or a standard was transferred into each well of a 96-well plate. To each well was added 20 μL of the internal standard solution. […] Next, the 96-well plate was capped and vortexed thoroughly and then centrifuged at 4000 rpm for at least 10 minutes at 4° C.
High performance liquid chromatography (HPLC) (Shimadzu Nexera X2 HPLC system) was coupled with an electrospray ionization triple quadrupole mass spectrometer (AB SCIEX API-6500), and an autosampler (CTC PAL Eksigent). Chromatographic separation was achieved using an XBridge™ Ethylene-Bridged Hybrid (BEH) C18 column, 3.5 μm (2.1×50 mm) (Waters), and a C 18 guard column (2×4 mm) (Phenomenex Security Guard). Mobile phase A was 0.1% formic acid in water and mobile phase B was 100% acetonitrile. In all conditions, the column temperature was at ambient, the autosampler temperature was at 4° C., and the injection volume was 10 μL. The diversion time from HPLC to MS was from 0.5 minutes to 2.5 minutes.
The mass spectrometer (MS) equipped with an ESI source, was operated at a source temperature of 700° C.

Data set [2] can be described thus: CSF and plasma concentration ratios for ibrutinib and PCI-45227, patient 01-001BF. The data set is classed as in vivo, human. The note with it: ibrutinib 560 mg daily; for Kp: human, CSF/plasma, 560 mg daily.
Data set [3] in a line: Adsorption test in human CSF to Nunc CryoTube vials. The data set is classed as physicochemical. Conditions: incubated for 1 h on ice, Low and High QC. From the text: These QC samples were kept in Nunc CryoTube vials for one hour. After an hour, each sample was vortex mixed and assayed against freshly prepared calibration standards. The obtained concentrations of the adsorption test QC samples were compared to the nominal values. The samples were considered to have no adsorption to the Nunc CryoTube vials if the mean value of the obtained concentrations was within 20% of the nominal concentration.

A short description of data set [4]: QC samples bench-top (ice) stability in human CSF. The data set is classed as in vitro ADME. Conditions: nominal 0.500 ng/mL, on ice for 2 hours, n=6.
Data set [5] is described as follows: QC samples freeze (−70° C.)/thaw (on ice) stability in human CSF. Type of data set: in vitro ADME. Conditions: nominal 0.500 ng/mL, 3 freeze/thaw cycles, n=6. The protocol: QC samples stored at −70° C., which were subjected to 3 freeze/thaw (ice) cycles, were measured against freshly prepared calibration standards.
A short description of data set [6]: Short-term storage stability in human CSF at −70±5° C. Type of data set: in vitro ADME. The note with it: −70±5° C. for at least 7 days, n=6.
For data set [7] the following is noted: cited from earlier work.
[8] abbreviates: Day 1, pre-dose (0 h), BQL = below quantification limit (0.3 ng/mL).

`C=CC(=O)N1CCC[C@@H](n2nc(-c3ccc(Oc4ccccc4)cc3)c3c(N)ncnc32)C1` [PCI-32765, (R)-1-(3-(4-amino-3-(4-phenoxyphenyl)-1H-pyrazolo[3,4-d]pyrimidin-1-yl)piperidin-1-yl)prop-2-en-1-one]: the “observed in CSF samples” value in data set [1] was “observed”. For the same molecule, the “Calculated Concentration in CSF” value in data set [1] (1 Month, 3 h) is given as 7.19 ng/mL; in data set [1] (Day 1, 2 h), 15.0 ng/mL; in data set [1] (setting [8]), “BQL”; in data set [1] (Day 1, pre-dose (0 h), BQL = below quantification limit (0.3 ng/mL), listed as Ibrutinib), “BQL^a”. Further, the concentration ratio (Kp) in data set [2] (1 Month, 3 h) turned out to be 0.035; in data set [2] (Day 1, 2 h), 0.03. The “adsorption to Nunc Cryo Tube vials” value in data set [3] was “no adsorption”.
As to `Nc1ncnc2c1c(-c1ccc(Oc3ccccc3)cc1)nn2[C@@H]1CCCN(C(=O)C(O)CO)C1` (stereo partly drawn) [PCI-45227], in data set [1], the “observed in CSF samples” value is “observed”. Further, the “Calculated Concentration in CSF” value in data set [1] (1 Month, 3 h) is on record as 15.4 ng/mL. Also, the “Calculated Concentration in CSF” value in data set [1] (Day 1, 2 h) is recorded as 14.7 ng/mL. Also, in data set [1] (setting [8]), the “Calculated Concentration in CSF” value was “BQL and BQL^a”. In data set [2] (1 Month, 3 h), the “% CSF/Plasma” value was determined as 8.5%. Moreover, the “% CSF/Plasma” value in data set [2] (Day 1, 2 h) was determined as 6.2%. Besides, in data set [4], the “Bench-top QC Low Concentration, Mean” value is 0.458 ng/mL and the “Bench-top QC Low, % Accuracy” value amounted to 91.5%. In data set [5], the “F/T3 (−70° C.) Low QC, % Accuracy” value was determined as 97.2% and the “F/T3 (−70° C.) Low QC, Mean” value was 0.486 ng/mL. Moreover, in data set [6] (nominal 0.500 ng/mL), the “Intra-run QC Low, % Accuracy” value is 99.4% and the “Intra-run QC Low, Mean” value amounted to 0.497 ng/mL. Further, in data set [6] (nominal 5.00 ng/mL), the “Intra-run QC Mid, % Accuracy” value worked out at 87.8% and the “Intra-run QC Mid, Mean” value is 4.39 ng/mL. Further, in data set [3], the “adsorption to Nunc Cryo Tube vials” value is “no adsorption”. Besides, in data set [7], the “reported percentage of unbound of the compounds in plasma” value is 9%.
